Measurements: publication PMC3434256 (Journal of the American Chemical Society, 2012)
“And” between values parts separate entries of the source, which are not always exact repeats. Equal entries are not always repeated. Where two headings read alike, the source gives them in different places. Marks after values point to notes of the source that are not given here.

Assays:
[1] = Nonenzymatic C-6 deuterium exchange catalyzed by deuterioxide ion in D2O; details: for kDO, second-order rate constant for deuterioxide-ion-catalyzed deuterium exchange at C-6: D2O; for kDO, second-order rate constant for deuterioxide-ion-catalyzed deuterium exchange at C-6 / kHO, second-order rate constant for proton transfer from C-6 to hydroxide ion: 25 °C; for kHO, second-order rate constant for proton transfer from C-6 to hydroxide ion: H2O, calculated from kDO using kDO/kHO = 2.4; for (Keq)aq, equilibrium constant for proton transfer from C-6 to a primary amine base of pKRNH3 = 7 in water: eq 12, pKCH of model nucleosides uridine and 5-fluorouridine
[2] = molecular target: T1, yeast orotidine 5′-monophosphate decarboxylase (ScOMPDC) (Saccharomyces cerevisiae, UniProt P03962, A160S/C155S/N267D/S2H); test: biochemical
T1 sequence (P03962 whole entry S2H/C155S/A160S/N267D): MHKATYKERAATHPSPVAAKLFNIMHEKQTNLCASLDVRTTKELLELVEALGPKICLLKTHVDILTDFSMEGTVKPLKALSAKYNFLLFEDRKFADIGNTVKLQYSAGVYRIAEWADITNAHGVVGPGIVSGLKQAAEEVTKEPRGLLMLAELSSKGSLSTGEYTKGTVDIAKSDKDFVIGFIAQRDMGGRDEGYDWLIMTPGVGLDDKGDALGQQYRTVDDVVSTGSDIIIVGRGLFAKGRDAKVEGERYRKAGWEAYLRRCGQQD

[3] = pKa of the phosphoryl group by titration; type: physicochemical; details: D2O, I = 0.1, estimated from UMP pKa in H2O plus 0.5 unit
[4] = molecular target: T1, yeast orotidine 5′-monophosphate decarboxylase (ScOMPDC); details: for kex, turnover number for deuterium exchange into enzyme-bound substrate / kex/Kd, second-order rate constant for enzyme-catalyzed deuterium exchange / (kex)max, intrinsic first-order rate constant (turnover number) for deuterium exchange into saturating substrate bound to the deprotonated enzyme: I = 0.1 (NaCl); for kex/Kd, second-order rate constant for enzyme-catalyzed deuterium exchange: ratio of kex and Kd; for free energy of binding to form the Michaelis complex: deprotonated enzyme; for (Keq)enz, equilibrium constant for proton transfer from C-6 of bound nucleotide to ScOMPDC: eq 11, krot = 10^7 s^−1; for Kd′/Kd, ratio of dissociation constants from protonated and deprotonated enzyme: from pKE - pKES; for stabilization of enzyme-bound vinyl carbanion relative to bound nucleotide: lower limit; for (kex)max, intrinsic first-order rate constant (turnover number) for deuterium exchange into saturating substrate bound to the deprotonated enzyme: pD-rate profile of kex fit to eq 7, D2O, 25 °C
[5] = pKa of the N-3 hydron, spectrophotometric; type: physicochemical
[6] = titration, H2O, 25 °C, I = 0.1; cited from earlier work
ScOMPDC [7] = details: cited from earlier work; for Kd: read-out: (Kd)obsd, observed affinity of ScOMPDC, pH 7.2, H2O
[8] = cited from earlier work
ScOMPDC [9] = details: pH 7.1, 25 °C; cited from earlier work
[10] = aqueous solution; cited from earlier work

Question: What does the source list for `Cn1cc(F)c(=O)n(C)c1=O`?
Answer: kDO, second-order rate constant for deuterioxide-ion-catalyzed deuterium exchange at C-6 [1]: 0.043 M⁻¹ s⁻¹; kHO, second-order rate constant for proton transfer from C-6 to hydroxide ion [1]: 0.018 M⁻¹ s⁻¹

Question: For `O=c1[nH]c(=O)n(C2OC(CO)C(O)C2O)cc1F` (stereo not drawn) [5-Fluorouridine N-3 Anion, 5-fluorouridine N-3 anion], which “kDO, second-order rate constant for deuterioxide-ion-catalyzed deuterium exchange at C-6” value [1] is on record?
Answer: 6.8e-05 M⁻¹ s⁻¹

Question: What about the “kHO, second-order rate constant for proton transfer from C-6 to hydroxide ion” value (“kHO, second-order rate constant” for short) [1] of the same molecule?
Answer: 2.8e-05 M⁻¹ s⁻¹

Question: What does the source list for `O=c1[nH]c(=O)n([C@@H]2O[C@H](COP(=O)(O)O)[C@@H](O)[C@H]2O)cc1F` [F-UMP, 5-fluorouridine 5′-monophosphate]?
Answer: (Keq)aq, equilibrium constant for proton transfer from C-6 to a primary amine base of pKRNH3 = 7 in water [1]: 8 × 10^−19; Kd [2]: 140 µM; pKSD2, ionization of the phosphoryl group [3]: 6.8; decrease in pKa of the side chain of Lys-93 upon binding (pKE - pKES) [4]: 1.4 unit; transition state stabilization for deuterium exchange [4]: 14 kcal/mol; kex, turnover number for deuterium exchange into enzyme-bound substrate ([4]; D2O, pD 6.45, 25 °C, fit to eq 5): 0.00818 s⁻¹; kex/Kd, second-order rate constant for enzyme-catalyzed deuterium exchange ([4]; D2O, pD 6.45, 25 °C): 8.3 M⁻¹ s⁻¹; kex, turnover number for deuterium exchange into enzyme-bound substrate ([4]; D2O, pD 7.03, 25 °C, fit to eq 5): 0.0169 s⁻¹; kex/Kd, second-order rate constant for enzyme-catalyzed deuterium exchange ([4]; D2O, pD 7.03, 25 °C): 33 M⁻¹ s⁻¹; kex, turnover number for deuterium exchange into enzyme-bound substrate ([4]; D2O, pD 7.37, 25 °C, fit to eq 5): 0.0242 s⁻¹; kex/Kd, second-order rate constant for enzyme-catalyzed deuterium exchange ([4]; D2O, pD 7.37, 25 °C): 140 M⁻¹ s⁻¹; kex, turnover number for deuterium exchange into enzyme-bound substrate ([4]; D2O, pD 7.64, 25 °C, fit to eq 5): 0.0324 s⁻¹; kex/Kd, second-order rate constant for enzyme-catalyzed deuterium exchange ([4]; D2O, pD 7.64, 25 °C): 300 M⁻¹ s⁻¹; kex for deuterium exchange ([4]; D2O, pD 8.15, 25 °C, I = 0.10 (NaCl), fit of kobsd/[E] to eq 4): 0.048 s⁻¹; kex, turnover number for deuterium exchange into enzyme-bound substrate ([4]; D2O, pD 8.15, 25 °C, fit to eq 5): 0.0438 s⁻¹; kex/Kd, second-order rate constant for enzyme-catalyzed deuterium exchange ([4]; D2O, pD 8.15, 25 °C): 400 M⁻¹ s⁻¹; kex, turnover number for deuterium exchange into enzyme-bound substrate ([4]; D2O, pD 9.33, 25 °C, fit to eq 5): 0.0384 s⁻¹; kex/Kd, second-order rate constant for enzyme-catalyzed deuterium exchange ([4]; D2O, pD 9.33, 25 °C): 200 M⁻¹ s⁻¹; stabilization of the transition state for deuterium exchange by the 5-fluoro substituent ([4]; F-UMP vs UMP): 4.8 kcal/mol; pKE, pKa of the essential residue at the free enzyme ([4]; Saccharomyces cerevisiae): 8.5 ± 0.2 ^d; pKES, pKa of the essential residue (Lys-93) at the E•S complex ([4]; Saccharomyces cerevisiae): 7.1 ± 0.1 ^f; free energy of binding to form the Michaelis complex [4]: 6.4 kcal/mol; (Keq)enz, equilibrium constant for proton transfer from C-6 of bound nucleotide to ScOMPDC [4]: 4.1 × 10^−9; Kd′/Kd, ratio of dissociation constants from protonated and deprotonated enzyme [4]: 25; stabilization of enzyme-bound vinyl carbanion relative to bound nucleotide [4]: at least 13 kcal/mol; (kex)max, intrinsic first-order rate constant (turnover number) for deuterium exchange into saturating substrate bound to the deprotonated enzyme [4]: 0.041 s⁻¹; total enzymatic rate acceleration for deuterium exchange ([4]; ratio of (kex)max/Kd and ko for 5-fluorouridine at pH 7.1): 3e+10 M⁻¹; pKa ([5]; buffered D2O): 8.37 ± 0.05; pKa ([5]; buffered H2O): 7.84 ± 0.03

Question: With `O=C[C@H](O)[C@H](O)[C@H](O)COP(=O)(O)O` [ribose 5′-monophosphate] as the molecule, how does the “pKa of the phosphoryl group” value [6] read?
Answer: 6.25

Question: For `O=c1ccn([C@@H]2O[C@H](CO)[C@@H](O)[C@H]2O)c(=O)[nH]1` [Uridine, uridine], which “kHO, second-order rate constant” value [1] is on record?
Answer: 0.00016 M⁻¹ s⁻¹

Question: For `O=c1cnn([C@@H]2O[C@H](COP(=O)(O)O)[C@@H](O)[C@H]2O)c(=O)[nH]1` [6-aza-UMP, 6-azauridine 5′-monophosphate], which Ki (ScOMPDC [7]; pH 7.2, competitive inhibitor) is on record?
Answer: 93 nM

Question: And the “deuterium exchange into UMP (2 mM) in the presence of inhibitor” value ([4]; 2 mM 6-aza-UMP, 260 μM ScOMPDC, 2 days, pD 9.3, 25 °C)?
Answer: no detectable deuterium exchange

Question: For `O=c1[nH]c(=O)n([C@H]2C[C@H](O)[C@@H](CO)O2)cc1F` [5-fluoro-2′-deoxyuridine], which “pKa of the N-3 proton” value ([8]; H2O, 25 °C, I = 0.1) is on record?
Answer: 7.67

Question: Which “pKa of the phosphoryl group” value [6] does the source give for `O=c1ccn([C@@H]2O[C@H](COP(=O)(O)O)[C@@H](O)[C@H]2O)c(=O)[nH]1` [UMP, uridine 5′-monophosphate] here?
Answer: 6.26 and 6.3

Question: And the “(Keq)aq, equilibrium constant for proton transfer from C-6 to a primary amine base of pKRNH3 = 7 in water” value [1]?
Answer: 2 × 10^−22

Question: And the “pKa of the N-3 proton (pKNH)” value ([8]; H2O, 25 °C, I = 0.1)?
Answer: 9.7

Question: What about the pKNH ([8]; ref Jencks, Regenstein, Handbook of Biochemistry and Molecular Biology 1976) of the same molecule?
Answer: 9.5

Question: What about the “decrease in pKa of the side chain of Lys-93 upon binding (pKE - pKES)” value [4] of the same molecule?
Answer: 0.5 unit

Question: And the “kex, turnover number for deuterium exchange into enzyme-bound substrate” value ([4]; D2O, pD 7.03, 25 °C, average of kobsd[UMP]o/[E])?
Answer: 1.2e-06 s⁻¹

Question: What about the “kex, turnover number for deuterium exchange into enzyme-bound substrate” value ([4]; D2O, pD 7.58, 25 °C, average of kobsd[UMP]o/[E]) of the same molecule?
Answer: 3.19e-06 s⁻¹

Question: What about the “kex, turnover number for deuterium exchange into enzyme-bound substrate” value ([4]; D2O, pD 8.13, 25 °C, average of kobsd[UMP]o/[E]) of the same molecule?
Answer: 7.53e-06 s⁻¹

Question: What about the “kex, turnover number for deuterium exchange into enzyme-bound substrate” value ([4]; D2O, pD 9.34, 25 °C, average of kobsd[UMP]o/[E]) of the same molecule?
Answer: 1.15e-05 s⁻¹

Question: What about the “free energy of binding to form the Michaelis complex” value [4] of the same molecule?
Answer: 6.4 kcal/mol

Question: And the “(Keq)enz, equilibrium constant for proton transfer from C-6 of bound nucleotide to ScOMPDC” value [4]?
Answer: 1.2 × 10^−12

Question: And the “Kd′/Kd, ratio of dissociation constants from protonated and deprotonated enzyme” value [4]?
Answer: 3

Question: What about the “stabilization of enzyme-bound vinyl carbanion relative to bound nucleotide” value [4] of the same molecule?
Answer: at least 13 kcal/mol

Question: And the “hydrolysis of the 5′-phosphoryl group during exchange reaction” value ([4]; pD 7.0)?
Answer: up to 19%

Question: And the “hydrolysis of the glycosidic bond to give uracil during exchange reaction” value ([4]; pD 7.0)?
Answer: up to 24%

Question: And the “hydrolysis of the 5′-phosphoryl group to give uridine during exchange reaction” value ([4]; pD 7.6 – 9.3)?
Answer: up to 4%

Question: And the “(kex)max, intrinsic first-order rate constant (turnover number) for deuterium exchange into saturating substrate bound to the deprotonated enzyme” value [4]?
Answer: 1.2e-05 s⁻¹

Question: For `O=c1[nH]c(=O)n([C@H]2C[C@H](O)[C@@H](COP(=O)(O)O)O2)cc1F` [5-fluoro-2′-deoxyuridine 5′-monophosphate], which “pKa of the N-3 proton (pKNH)” value ([8]; H2O, 25 °C, I = 0.1) is on record?
Answer: 7.90

Question: And the Kd (ScOMPDC [7])?
Answer: 250 µM

Question: Which results are given for `O=C(O)c1cc(=O)[nH]c(=O)n1[C@@H]1O[C@H](COP(=O)(O)O)[C@@H](O)[C@H]1O` [OMP, orotidine 5′-monophosphate]?
Answer: pKa of the phosphoryl group [6]: 6.38; kcat for decarboxylation (ScOMPDC [9]): 15 s⁻¹; ko, nonenzymatic decarboxylation [10]: 2.8e-16 s⁻¹

Question: With `O=c1ccn([C@@H]2O[C@H](CO)[C@@H](O)[C@H]2O)c(=O)[nH]1` [Uridine N-3 Anion, uridine N-3 anion] as the molecule, how does the “kDO, second-order rate constant for deuterioxide-ion-catalyzed deuterium exchange at C-6” value [1] read?
Answer: 1.5e-08 M⁻¹ s⁻¹

Question: What about the “kHO, second-order rate constant” value [1] of the same molecule?
Answer: 6.3e-09 M⁻¹ s⁻¹

Question: Which “kDO, second-order rate constant for deuterioxide-ion-catalyzed deuterium exchange at C-6” value [1] does the source give for `O=c1[nH]c(=O)n([C@@H]2O[C@H](CO)[C@@H](O)[C@H]2O)cc1F` [5-Fluorouridine, 5-fluorouridine] here?
Answer: 1.7 M⁻¹ s⁻¹

Question: What about the “kHO, second-order rate constant” value [1] of the same molecule?
Answer: 0.71 M⁻¹ s⁻¹

Question: And the “ko = kHO[HO^−], observed rate constant for C-6 deprotonation by hydroxide ion” value ([1]; water, pH 7.1)?
Answer: 9e-08 s⁻¹

Question: Which Kd (ScOMPDC [7]) does the source give for `O=c1ccn([C@H]2C[C@H](O)[C@@H](COP(=O)(O)O)O2)c(=O)[nH]1` [2′-deoxyuridine 5′-monophosphate] here?
Answer: 170 µM
